Marks after values point to notes of the source that are not given here.
Test system: severe traumatic brain injury (sTBI) in rats
Assay: HPLC of purine-pyrimidine / energy metabolites in rat brain after sTBI (Example 4)
Format: in vivo
Procedure: The effects of daily sub-cutaneous injections of dextran sulfate on glutamate excitotoxicity and mitochondrial function after severe traumatic brain injury (sTBI) in rats were evaluated by high-performance liquid chromatography (HPLC) analysis of frozen brain samples.
The experimental protocol used in this study was approved by the Ethical Committee of the Catholic University of Rome, according to international standards and guidelines for animal care. Male Wistar rats of 300-350 g body weight (b.w.) were fed with standard laboratory diet and water ad libitum in a controlled environment.
They were divided into three groups: • 1) n=6 animals subjected to sTBI, with drug administration after 30 minutes and sacrifice at 2 days post-TBI (Acute phase 1) • 2) n=6 animals subjected to severe-TBI, with drug administration after 30 minutes and sacrifice at 7 days post-TBI (Acute phase 2). • 3) n=6 animals subjected to severe-TBI, with drug administration after 3 days and sacrifice at 7 days post-TBI (Chronic phase).
As the anesthetic mixture, animals received 35 mg/kg b.w. ketamine and 0.25 mg/kg b.w. midazolam by i.p. injection. sTBI was induced by dropping a 450 g weight from 2 m height on to the rat head that had been protected by a metal disk previously fixed on the skull, according to the “weight drop” impact acceleration model (Marmarou et al., A new model of diffuse brain injury in rats. Part I: Pathophysiology and biomechanics. J Neurosurg. 1994; 80: 291-300). […] At the end of each period of treatment, rats were anesthetized again and then immediately sacrificed.
The drug treatment was a subcutaneous injection of 0.5 ml of dextran sulfate (Tikomed AB, Viken, Sweden, WO 2016/076780; 15 mg/kg) and administered according to the aforementioned schematic protocol.
An in vivo craniectomy was performed in all animals during anesthesia, after carefully removing the rat's skull, the brain was exposed and removed with a surgical spatula and quickly dropped in liquid nitrogen. After the wet weight (w.w.) determination, tissue preparation was affected as previously disclosed (Tavazzi et al., Cerebral oxidative stress and depression of energy metabolism correlate with severity of diffuse brain injury in rats. Neurosurgery. 2005; 56: 582-589; Vagnozzi et al., Temporal window of metabolic brain vulnerability to concussions: mitochondrial-related impairment-part I. Neurosurgery. 2007; 61: 379-388; Tavazzi et al., Temporal window of metabolic brain vulnerability to concussions: oxidative and nitrosative stresses-part II. Neurosurgery. 2007; 61: 390-395; Amorini et al., Severity of experimental traumatic brain injury modulates changes in concentrations of cerebral free amino acids. J Cell Mol Med. 2017; 21: 530-542.). Briefly, whole brain homogenization was performed with 7 ml of ice-cold, nitrogen-saturated, precipitating solution composed by CH3CN+10 mM KH2PO4, pH 7.40, (3:1; v:v), and using an Ultra-Turrax set at 24,000 rpm/min (Janke & Kunkel, Staufen, Germany). After centrifugation at 20,690×g, for 10 min at 4° C., the clear supernatants were saved, pellets were supplemented with 3 ml of the precipitating solution and homogenized again as described above. A second centrifugation was performed (20,690×g, for 10 min at 4° C.), pellets were saved, supernatants combined with those previously obtained, extracted by vigorous agitation with a double volume of HPLC-grade CHCl3 and centrifuged as above. The upper aqueous phases containing water-soluble low-molecular weight compounds were collected, subjected to chloroform washings for two more times (this procedure allowed the removal of all the organic solvent and of any lipid soluble compound from the buffered tissue extracts), adjusted in volumes with 10 mM KH2PO4, pH 7.40, to have ultimately aqueous 10% tissue homogenates and saved at −80° C. until assayed. […]

[1] = Acute phase 1 (15 mg/kg s.c. 30 min after sTBI, sacrifice 2 days post-TBI)
[2] = Acute phase 2 (15 mg/kg s.c. 30 min after sTBI, sacrifice 7 days post-TBI)

dextran sulfate
ADO concentration [1]: 71.67 ± 15.87 nmol/g (w.w.) | ADP concentration [1]: 279.34 ± 29.59^b nmol/g (w.w.) | ADP-ribose concentration [1]: 137.87 ± 43.18^a nmol/g (w.w.) | AMP concentration [1]: 53.61 ± 17.91^a,c,j nmol/g (w.w.) | ATP concentration [1]: 1464.25 ± 99.09^a,h nmol/g (w.w.) | CDP choline concentration [1]: 10.93 ± 3.22^b,h nmol/g (w.w.) | CDP concentration [1]: 25.53 ± 6.83^a,c nmol/g (w.w.) | CMP concentration [1]: 30.12 ± 9.97^a,h nmol/g (w.w.) | CTP concentration [1]: 18.98 ± 6.58^a,g nmol/g (w.w.) | CoA-SH concentration [1]: 21.61 ± 3.42^a,h nmol/g (w.w.) | GDP concentration [1]: 158.72 ± 24.57^a nmol/g (w.w.) | GDP glucose concentration [1]: 38.71 ± 6.86 nmol/g (w.w.) | GMP concentration [1]: 177.00 ± 32.39^a,g nmol/g (w.w.) | GSH concentration [1]: 2649.50 ± 397.31^a,d nmol/g (w.w.) | GSSG concentration [1]: 185.21 ± 48.10 nmol/g (w.w.) | GTP concentration [1]: 255.29 ± 45.21^a,g nmol/g (w.w.) | IMP concentration [1]: 67.71 ± 10.63^g,i nmol/g (w.w.) | MDA concentration [1]: 12.47 ± 2.09^a,c,g nmol/g (w.w.) | NAA concentration [1]: 6147.91 ± 989.12^a nmol/g (w.w.) | NADH concentration [1]: 15.49 ± 2.05^c,j nmol/g (w.w.) | NADPH concentration [1]: 6.22 ± 1.73 nmol/g (w.w.) | NADP^+ concentration [1]: 17.95 ± 3.28^a nmol/g (w.w.) | NAD^+ concentration [1]: 404.63 ± 51.10^a,c,i nmol/g (w.w.) | NO2 concentration [1]: 216.03 ± 41.74^a nmol/g (w.w.) | NO3 concentration [1]: 210.64 ± 91.95^d nmol/g (w.w.) | UDP concentration [1]: 61.83 ± 10.23^a,g nmol/g (w.w.) | UDP-Gal concentration [1]: 119.45 ± 12.50 nmol/g (w.w.) | UDP-GalNac concentration [1]: 19.17 ± 4.01^a nmol/g (w.w.) | UDP-Glc concentration [1]: 32.14 ± 4.59^g nmol/g (w.w.) | UDP-GlcNac concentration [1]: 95.85 ± 19.73^h,i nmol/g (w.w.) | UMP concentration [1]: 107.80 ± 21.62 nmol/g (w.w.) | UTP concentration [1]: 123.46 ± 15.42^d nmol/g (w.w.) | acetyl-CoA concentration [1]: 21.56 ± 6.22^a,g,i nmol/g (w.w.) | adenine concentration [1]: 44.82 ± 6.31^a,d,g nmol/g (w.w.) | ascorbic acid concentration [1]: 3733.10 ± 277.88^a,d nmol/g (w.w.) | creatinine concentration [1]: 24.55 ± 3.20^b,g,i nmol/g (w.w.) | cytidine concentration [1]: 15.40 ± 3.04 nmol/g (w.w.) | cytosine concentration [1]: 17.69 ± 2.50^b,d nmol/g (w.w.) | guanine concentration [1]: 4.80 ± 1.24^b nmol/g (w.w.) | guanosine concentration [1]: 20.71 ± 5.66 nmol/g (w.w.) | hypoxanthine concentration [1]: 14.47 ± 2.87^a nmol/g (w.w.) | inosine concentration [1]: 92.55 ± 31.20^c nmol/g (w.w.) | malonyl-CoA concentration [1]: 12.33 ± 1.82^b nmol/g (w.w.) | orotic acid concentration [1]: 8.80 ± 2.45^b,h,j nmol/g (w.w.) | thymidine concentration [1]: 0.69 ± 0.11 nmol/g (w.w.) | uracil concentration [1]: 14.56 ± 5.44 nmol/g (w.w.) | uric acid concentration [1]: 23.62 ± 3.77^a,d,h nmol/g (w.w.) | uridine concentration [1]: 76.35 ± 12.85^a,c nmol/g (w.w.) | xanthine concentration [1]: 9.46 ± 2.34^d nmol/g (w.w.) | β-pseudouridine concentration [1]: 6.65 ± 1.30^g,i nmol/g (w.w.) | ADO concentration [2]: 82.11 ± 16.51^a nmol/g (w.w.) | ADP concentration [2]: 264.07 ± 28.29^b,e,j nmol/g (w.w.) | ADP-ribose concentration [2]: 141.96 ± 23.56^a,e,j nmol/g (w.w.) | AMP concentration [2]: 57.70 ± 23.01^a,e,j nmol/g (w.w.) | ATP concentration [2]: 1632.23 ± 90.07^a,e,j nmol/g (w.w.) | CDP choline concentration [2]: 6.91 ± 1.86 nmol/g (w.w.) | CDP concentration [2]: 24.29 ± 6.76^a nmol/g (w.w.) | CMP concentration [2]: 15.68 ± 2.12^f,j nmol/g (w.w.) | CTP concentration [2]: 32.63 ± 3.99^e,i nmol/g (w.w.) | CoA-SH concentration [2]: 30.57 ± 6.02^f nmol/g (w.w.) | GDP concentration [2]: 126.70 ± 31.35^a,j nmol/g (w.w.) | GDP glucose concentration [2]: 49.25 ± 10.33^a nmol/g (w.w.) | GMP concentration [2]: 91.47 ± 12.35^e,i nmol/g (w.w.) | GSH concentration [2]: 2821.50 ± 242.82^a,e nmol/g (w.w.) | GSSG concentration [2]: 219.54 ± 53.36 nmol/g (w.w.) | GTP concentration [2]: 336.65 ± 35.18^a,e,j nmol/g (w.w.) | IMP concentration [2]: 102.63 ± 22.09^a nmol/g (w.w.) | MDA concentration [2]: 4.82 ± 1.73^a,e,i nmol/g (w.w.) | NAA concentration [2]: 7262.84 ± 749.73^a,e nmol/g (w.w.) | NADH concentration [2]: 13.12 ± 4.19^e nmol/g (w.w.) | NADPH concentration [2]: 7.05 ± 2.21 nmol/g (w.w.) | NADP^+ concentration [2]: 21.27 ± 4.19^b,e,j nmol/g (w.w.) | NAD^+ concentration [2]: 401.18 ± 34.53^a,e,i nmol/g (w.w.) | NO2 concentration [2]: 226.40 ± 30.95^b nmol/g (w.w.) | NO3 concentration [2]: 198.56 ± 25.93^e,i nmol/g (w.w.) | UDP concentration [2]: 40.38 ± 8.50^a,i nmol/g (w.w.) | UDP-Gal concentration [2]: 145.14 ± 27.76 nmol/g (w.w.)
